Assay results as given in US10166271B2, “Methods for promoting hair growth” (THE REGENTS OF THE UNIVERSITY OF CALIFORNIA, priority 2006, dated 2019).
Several values for one entry are separate records, joined by “and”; a condition that tells them apart may be missing. Identical values can stand only once.

Tests used:
young CRF-OE mice = conditions: mouse, in vivo
Experimental: Each subcutaneous injection is given in a single puncture located along or about the midline of the back. Age-matched CRF-OE mice similarly injected with 0.1 ml vehicle alone are used as negative controls. Astressin B fragments are as described in Example 8. Alternatively, topical astressin B can be applied to the mouse's back, for example 0.05 mg, 0.5 mg, 5 mg, 50 mg, or 500 mg of an astressin B fragment once daily for at least five consecutive days
Hair growth (or hair loss) is assessed using the hair growth scale described in Example 1. The general conditions of treated and control mice, such as weight, back skin thickness, hair luster, skin wounds and indurations, are noted.

CRF-OE mice [1] = assay: Hair growth and skin pigmentation after ip injection in adult alopecic CRF-OE mice (Example 2); format: in vivo; set-up: key to Back Hair Growth Score (BK) / Ventral Abdomen Hair Growth Score (VAb): hair growth score 0-10: 0 = no change in hair, 10 = full hair growth; key to Skin pigmentation (Pg) score: pigment score 0-10: 0 = bright pink skin, 10 = fully black; conditions: for Back Hair Growth Score (BK) / Skin pigmentation (Pg) score / Ventral Abdomen Hair Growth Score (VAb): adult male CRF-OE mice, individual mice and Ave.
Experimental: Hair growth in CRF-OE mice was assessed using the hair growth scale developed by Vegesna et al. […], 2002) modified to account for phenotypic differences between CRF-OE mice. Scores were made visually as well as using photographs of each mouse at a weekly interval. The degree of alopecia varied between individual CRF-OE mice; thus, the percent difference between the amount of hair present in the test area (described below) before and 4 weeks after treatment was converted to a score of 0-10. A zero score corresponded to a no change in the amount of hair in the test area and a score of 10 corresponded to full hair growth in the entire test area. The scale for monitoring hair growth in CRF-OE mice is more particularly described in Table 2.
Pigmentation of the skin (also referred to as skin color) in the test region was also measured because, in C57BL/6 mice, the skin darkens at the onset of hair growth. A pigmentation score from 0-10 was given to each mouse with a score of 0 corresponding to bright pink skin color/pigment in the entire test region, a score of 1-5 corresponding to increasing intensity of a pale greyish color/pigment of skin in the test region, a score of 6-9 corresponding to increasing but non-confluent darker color/pigment of skin in the test region, and a score of 10 corresponding to black pigmentation of the entire test region. Pigmentation was measured one week after the fifth and final injection because changes (if any) in pigmentation are substantially complete by that time.
CRF-OE mice (approximately 4 months old) with fully developed alopecia on their backs were injected intraperitoneally (ip) with equal volumes (0.1 ml) of either saline or astressin B (5 μg/mouse/day) for 5 consecutive days. Skin pigment score and hair growth (on the back) score were determined as described in Example 1. In addition, because adult CRF-OE mice also lose ventral abdomen hair, a ventral abdomen (Vab) hair growth score was determined. The area considered for scoring ventral abdomen hair growth was delineated, in the front (anteriorly), by a horizontal line across the tip of the xifoid process (distal sternum), in the rear (posteriorly), by a horizontal line joining the back of the thighs along the anus, and, laterally, by a straight line along the lateral side of the ventral abdomen on left and right sides.

CRF1/CRF2 receptor = CRF1/CRF2 receptor antagonist; stated without test; cited from earlier work
CRF-OE mice [2] = assay: Cyclic CRF antagonists, hair growth in adult alopecic CRF-OE mice (Example 10); format: in vivo; conditions: at least four weeks after the final administration
Text: Although mice are particularly described, one skilled in the art will appreciate that other laboratory animals and human subjects can be used, and doses adjusted accordingly (for example based on the weight of the subject, or the area to which the peptide is to be applied). Similarly although particular modes of administration are described, one will appreciate that variations can be made (such as those disclosed herein and those known in the art).
Any method of administration can be used, including injection, transdermal/topical delivery, or combinations thereof.
In one example, therapeutic peptides are administered via injection. For example, mice can be injected subcutaneously or intraperitoneally with at least 0.05 μg, at least 0.5 μg, at least 5 μg, at least 50 μg, or at least 500 μg of one or more therapeutic peptides (for example 0.5-50 μg peptide, 0.5-10 μg peptide, or 5 μg peptide). The peptide can be administered in 0.1 ml sterile saline (or 5% mannitol) once per day for at least 5 consecutive days, such as at least 10 days, at least 30 days, or at least 60 days. […] As a negative control, CRF-OE mice receive saline alone (such as 10-100 μl) or 5 μg astressin 2B in 0.1 ml saline.
In another example, therapeutic peptides are administered topically or transdermally. […]

[3] = ip 5 μg/mouse/day x 5 days, CRF-OE mice
[4] = ip 5 μg/mouse/day x 5 days, Before (Week 0), listed as AB
[5] = ip 5 μg/mouse/day x 5 days, Before (Week 0), listed as AB, mean
[6] = ip 5 μg/mouse/day x 5 days, Week 1, listed as AB
[7] = ip 5 μg/mouse/day x 5 days, Week 1, listed as AB, mean
[8] = ip 5 μg/mouse/day x 5 days, Week 8, listed as AB
[9] = ip 5 μg/mouse/day x 5 days, Week 8, listed as AB, mean

(cyclo 30-33)[DPhe12, Nle21,38, Cml27,40, Glu30, Lys33]Ac-h/rCRF9-41 [Astressin B]
General conditions of treated mice (young CRF-OE mice): well and substantially the same
Onset of dark skin pigment after the final injection (CRF-OE mice [1]; [3]): ≤ 3 days
Time of darkest skin color / maximal pigment response after the final injection (CRF-OE mice [1]; [3]): 7 to 10 days
Re-grown hair maintained / retained after the final ip injection (CRF-OE mice [1]; ip 5 μg/mouse/day x 5 days, CRF-OE mice, listed as astressin B): ≥ 8 weeks
Re-grown hair maintained / retained after the final ip injection (CRF-OE mice [1]; ip 5 μg/mouse/day x 5 days, CRF-OE mice, listed as astressin-B): 8 weeks
Back Hair Growth Score (BK) (CRF-OE mice [1]; [4]): 2 and 1 (3×)
Skin pigmentation (Pg) score (CRF-OE mice [1]; [4]): 0.0
Ventral Abdomen Hair Growth Score (VAb) (CRF-OE mice [1]; [4]): 5 (3×) and 2.5
Back Hair Growth Score (BK) (CRF-OE mice [1]; [5]): 1.25
Skin pigmentation (Pg) score (CRF-OE mice [1]; [5]): 0
Ventral Abdomen Hair Growth Score (VAb) (CRF-OE mice [1]; [5]): 4.4
Skin pigmentation (Pg) score (CRF-OE mice [1]; ip 5 μg/mouse/day x 5 days, Week 1): 10
Back Hair Growth Score (BK) (CRF-OE mice [1]; [6]): 9.5 and 10 and 9 (2×)
Ventral Abdomen Hair Growth Score (VAb) (CRF-OE mice [1]; [6]): 10 (2×) and 8 (2×)
Back Hair Growth Score (BK) (CRF-OE mice [1]; [7]): 9.4
Ventral Abdomen Hair Growth Score (VAb) (CRF-OE mice [1]; [7]): 9
Ventral Abdomen Hair Growth Score (VAb) (CRF-OE mice [1]; ip 5 μg/mouse/day x 5 days, Week 4): 10
Back Hair Growth Score (BK) (CRF-OE mice [1]; ip 5 μg/mouse/day x 5 days, Week 4, listed as AB): 10 (3×) and 9.5
Back Hair Growth Score (BK) (CRF-OE mice [1]; ip 5 μg/mouse/day x 5 days, Week 4, listed as AB, mean): 9.9
Ventral Abdomen Hair Growth Score (VAb) (CRF-OE mice [1]; ip 5 μg/mouse/day x 5 days, Week 4, mean): 10
Back Hair Growth Score (BK) (CRF-OE mice [1]; [8]): 10 and 9.5 and 8.5 and 8
Ventral Abdomen Hair Growth Score (VAb) (CRF-OE mice [1]; [8]): 10 (2×) and 8 (2×)
Back Hair Growth Score (BK) (CRF-OE mice [1]; [9]): 9
Ventral Abdomen Hair Growth Score (VAb) (CRF-OE mice [1]; [9]): 9
Hair coverage (CRF-OE mice [1]; ip 5 μg/mouse/day x 5 days, at 2 weeks, four-month old male CRF-OE mice): 95-100%
Re-grown hair largely maintained after the last ip injection (CRF-OE mice [1]; ip 5 μg/mouse/day x 5 days, four-month old male CRF-OE mice): up to 16 weeks
Hair growth score (fully grown hair) (CRF-OE mice [1]; ip, four and seven weeks after the final injection, all mice): 9-10
Mice with dark skin (CRF-OE mice [1]; ip, one week after the final injection, fraction of mice): 4/4
Duration of action (long acting) (CRF1/CRF2 receptor): ≥ 24 h

cyclo(31-34)[DPhe11, His12, CαMeLeu13,39, Nle17, Glu31, Lys34]Ac-Sau(8-40) [Astressin 2B, reference compound]
Hair in the test area (CRF-OE mice [2]): remain bald in the test area
